# Test results published in article doi:10.1101/2021.01.25.428124v1 (biorxiv, 2021).
# Biological target: Methyl-coenzyme M reductase (MCR-I), Ni(I)-MCRred1 (Methanothermobacter marburgensis, UniProt P11558+P11560+P11562)
# Experiment: biochemical
# Assay type: binding
# Methyl-coenzyme M reductase (MCR-I), Ni(I)-MCRred1, sequence (P11558 2-550 limits assumed): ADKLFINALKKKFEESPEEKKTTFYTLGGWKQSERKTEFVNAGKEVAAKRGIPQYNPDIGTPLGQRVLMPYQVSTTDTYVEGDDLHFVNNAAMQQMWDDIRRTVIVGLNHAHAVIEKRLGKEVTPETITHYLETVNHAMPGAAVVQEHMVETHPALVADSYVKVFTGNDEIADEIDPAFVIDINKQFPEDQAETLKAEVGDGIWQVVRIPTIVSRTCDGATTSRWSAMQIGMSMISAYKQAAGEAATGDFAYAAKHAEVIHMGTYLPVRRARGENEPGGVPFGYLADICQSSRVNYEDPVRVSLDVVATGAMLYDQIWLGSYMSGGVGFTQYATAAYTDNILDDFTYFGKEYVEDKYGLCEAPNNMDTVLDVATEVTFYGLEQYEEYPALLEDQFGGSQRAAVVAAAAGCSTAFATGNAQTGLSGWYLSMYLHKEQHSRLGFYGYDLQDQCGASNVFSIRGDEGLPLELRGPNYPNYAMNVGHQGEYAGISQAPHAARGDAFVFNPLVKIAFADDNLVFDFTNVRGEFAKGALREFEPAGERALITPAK
# Methyl-coenzyme M reductase (MCR-I), Ni(I)-MCRred1, sequence (P11560 2-443 limits assumed): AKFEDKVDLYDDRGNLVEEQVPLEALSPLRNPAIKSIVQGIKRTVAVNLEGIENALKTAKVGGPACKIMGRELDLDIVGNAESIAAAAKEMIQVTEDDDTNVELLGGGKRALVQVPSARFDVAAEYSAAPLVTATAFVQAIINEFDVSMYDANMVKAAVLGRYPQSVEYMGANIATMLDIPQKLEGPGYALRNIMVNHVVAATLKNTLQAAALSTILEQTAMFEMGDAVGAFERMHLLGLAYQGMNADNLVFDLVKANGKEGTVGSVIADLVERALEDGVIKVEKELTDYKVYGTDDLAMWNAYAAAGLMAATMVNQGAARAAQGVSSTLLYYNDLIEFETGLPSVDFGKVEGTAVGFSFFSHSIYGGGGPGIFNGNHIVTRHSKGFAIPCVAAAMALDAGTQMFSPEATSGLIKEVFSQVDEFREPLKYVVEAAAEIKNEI
# Methyl-coenzyme M reductase (MCR-I), Ni(I)-MCRred1, sequence (P11562 2-249 limits assumed): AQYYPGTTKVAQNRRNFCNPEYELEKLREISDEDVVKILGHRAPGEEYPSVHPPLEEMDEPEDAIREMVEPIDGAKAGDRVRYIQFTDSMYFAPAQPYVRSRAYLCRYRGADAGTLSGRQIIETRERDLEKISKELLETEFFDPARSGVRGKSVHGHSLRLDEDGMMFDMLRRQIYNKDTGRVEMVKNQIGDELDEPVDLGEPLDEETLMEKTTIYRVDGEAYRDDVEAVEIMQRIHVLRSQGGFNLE
row,SMILES,Kd
1,"CSCCS(=O)(=O)O [methyl-SCoM, S-methyl-2-mercaptoethane sulfonate]",27.5 ± 7.3 µM
2,C[C@@H](OP(=O)(O)O)[C@H](NC(=O)CCCCCCSSCCS(=O)(=O)O)C(=O)O [CoMSSCoB],57.4 ± 5.4 µM
3,C[C@@H](OP(=O)(O)O)[C@H](NC(=O)CCCCCSSCCS(=O)(=O)O)C(=O)O [CoMSSCoB6],105 ± 10.9 µM
4,CCCCS(=O)(=O)O [But-SO3],3300 ± 600 µM
